Assay results taken from paper PMC9696794, “Synthesis and Antimicrobial Activity of Short Analogues of the Marine Antimicrobial Peptide Turgencin A: Effects of SAR Optimizations, Cys-Cys Cyclization and Lipopeptide Modifications” (International Journal of Molecular Sciences, 2022).
Converted amounts (≈) assume the structure as drawn. Where a SMILES comes first, the peptide text is derived from it. Bridges are numbered along the chain shown (N, C = ends). The star is where a group is joined. Lauroyl = CCCCCCCCCCCC(=O)*; Octanoyl = CCCCCCCC(=O)*

Legend:
[1] = system: B. subtilis (Bs, ATCC 23857); assay: microbe, parasite or virus in culture; format: cell-based, Bacillus subtilis; settings: for Antimicrobial Activity (MIC) Gram + Bs: ATCC 23857, 24 h
Outline: (§1)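 Cultures grown in Mueller–Hinton broth were adjusted by OD600 to 2.5–3 × 10^4 CFU/mL and mixed with two-fold peptide dilutions from 256 to 1 µg/mL. Plates were incubated at 35 °C with OD595 monitored every hour for 24 h.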

[2] = system: S. aureus (Sa, ATCC 9144); assay: microbe, parasite or virus in culture; format: cell-based, Staphylococcus aureus; settings: for Antimicrobial Activity (MIC) Gram + Sa: ATCC 9144, 24 h
Outline: as §1

[3] = system: S. epidermidis RP62A (Se, ATCC 35984); assay: microbe, parasite or virus in culture; format: cell-based, Staphylococcus epidermidis; settings: for Antimicrobial Activity (MIC) Gram + Se: ATCC 35984, 24 h
Outline: as §1

[4] = system: A. pullulans (Ap); assay: microbe, parasite or virus in culture; format: cell-based, Aurobasidium pollulans; settings: 48 h
Outline: (§2)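 Overnight cultures in potato dextrose broth with 2% glucose at 25–30 °C were diluted to approx. 4 × 10^5 spores/mL and mixed 1:1 with two-fold peptide dilutions plated at 256 to 1 µg/mL. After 48 h at room temperature, OD600 was read. MIC was the lowest concentration giving OD below 10% of the growth control, in triplicate.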

[5] = system: C. albicans (Ca, ATCC 10231); assay: microbe, parasite or virus in culture; format: cell-based, Candida albicans; settings: for Antimicrobial Activity (MIC) Fungi Ca: ATCC 10231, 48 h
Outline: as §2

[6] = system: Rhodotorula sp. (Rh); assay: microbe, parasite or virus in culture; format: cell-based; settings: 48 h
Outline: as §2

[7] = system: E. coli MC4100 (wild type, WT); assay: microbe, parasite or virus in culture; settings: for MIC E. coli MC4100 (WT): wild type
Outline: (§3)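 Broth microdilution in Mueller–Hinton medium, 2.5–3 × 10^4 CFU/mL inoculum, two-fold peptide dilutions from 256 to 1 µg/mL, 35 °C with OD595 read hourly for 24 h. MIC is the lowest concentration giving OD below 10% of the untreated growth control; run in triplicate.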

[8] = system: E. coli NR698 (outer membrane permeable mutant, imp4213); assay: microbe, parasite or virus in culture; settings: for MIC E. coli NR698 (mutant): MC4100 NR698 imp4213, deficient outer membrane
Outline: as §3

[9] = system: E. coli MC4100 (WT); assay: Outer membrane permeability assay (NPN uptake fluorescence); format: cell-based, Escherichia coli
Method: The outer membrane of Gram-negative bacteria acts as a barrier for many hydrophobic and larger hydrophilic substances (>600 Da). However, some peptides can sensitize the outer membrane and thus facilitate the entry of various hydrophobic molecules. To explore if the peptides affect the outer membrane of E. coli MC4100, C12-cTurg-1 and C8-cTurg-2 were tested for their ability to enable the entry of the hydrophobic fluorescent probe 1-N-phenylnapthylamine (NPN, MW of 219 Da) (Figure 5). […] Normally, the hydrophobic NPN is excluded by E. coli bacteria, but it can enter the bacteria once the integrity of the outer membrane is compromised. […] Thus, the observed effects indicate that the outer membrane passage of C8-cTurg-2 was a rate-limiting step that was most likely preventing the peptide from reaching and accumulating in the inner membrane.
The permeability of the E. coli outer membrane was analysed by measuring increased fluorescence as kinetics of 1-N-phenylnaphthylamine (NPN, Sigma-Aldrich) uptake following the protocol described by, with minor modifications. Briefly, a single colony of E. coli MC4100 (WT) was suspended in MH medium and incubated overnight at 37 °C with shaking (225 rpm). The culture was diluted in MH medium and adjusted to OD600 = 0.1 and incubated at 37 °C until it reached an OD600 of 0.5. The cells were centrifuged and washed twice with an assay buffer (5 mM HEPES, 5 mM glucose, pH 7.2) and resuspended in the same buffer to a final OD600 of 1.0. E. coli MC4100 cells were mixed with 20 µM NPN. The assay set up was the same as for the membrane integrity and viability assay, using black round-bottom 96-well microtiter plates (Nunc) containing 10 µL of 2-fold dilutions of peptides (500 to 31.2 µg/mL). A volume of 90 µL of cell suspension with NPN was added to each well by the automated injector of the Synergy H1 Hybrid Reader. The fluorescence was immediately measured (well by well) at an excitation wavelength of 350 nm and an emission wavelength of 420 nm every second for 3 min. The relative fluorescence was calculated by normalizing the values from each time point with the negative control (Milli-Q water). CHX was included as a positive control.

CCCCCCCCCCCC(=O)N[C@H]1CSSC[C@@H](C(=O)N[C@@H](CCCCN)C(=O)N[C@@H](CC(C)C)C(N)=O)NC(=O)[C@H](CCCCN)NC(=O)[C@H](Cc2c[nH]c3ccccc23)NC(=O)CNC(=O)CNC(=O)[C@@H]2CCCN2C(=O)[C@H](CCCCN)NC(=O)[C@H](CCCCN)NC(=O)CNC1=O [Peptide C12-cTurg-1, C12 -(CGKKPGGWKC)KL-NH2] (Lauroyl-CGKKPGGWKCKL-NH2; disulfide 1-10)
Antimicrobial Activity (MIC) Gram + Bs [1]: 2 µg/mL
Antimicrobial Activity (MIC) Gram + Sa [2]: 4 µg/mL
Antimicrobial Activity (MIC) Gram + Se [3]: 4 µg/mL
Antimicrobial Activity (MIC) Fungi Ap [4]: 32 µg/mL
Antimicrobial Activity (MIC) Fungi Ca [5]: 64 µg/mL
Antimicrobial Activity (MIC) Fungi Rh [6]: 4 µg/mL
MIC E. coli MC4100 (WT) [7]: 4 µg/mL (≈ 2.7 µM)
MIC E. coli NR698 (mutant) [8]: 2 µg/mL (≈ 1.35 µM)
increase in NPN fluorescence ([9]; E. coli MC4100, 25 to 50 µg/mL): almost a four-fold increase
effect on NPN fluorescence (outer membrane permeabilization) ([9]; not told): increase the NPN fluorescence in a concentration-dependent manner

[H]/N=C(\N/C(=N/[H])NCCCCCCNC(=N)NC(=N)Nc1ccc(Cl)cc1)Nc1ccc(Cl)cc1 [Chlorhexidine, reference compound]
MIC ([1]; Bacillus subtilis, ATCC23857, B. subtilis ATCC 23857, 24 h, read-out: Antimicrobial Activity (MIC) Gram + Bs): 1.6 µg/mL
MIC ([2]; Staphylococcus aureus, ATCC9144, S. aureus ATCC 9144, 24 h, read-out: Antimicrobial Activity (MIC) Gram + Sa): 1.6 µg/mL
MIC ([3]; Staphylococcus epidermidis, ATCC35984, S. epidermidis RP62A ATCC 35984, 24 h, read-out: Antimicrobial Activity (MIC) Gram + Se): 1.6 µg/mL
MIC ([4]; Aureobasidium pullulans, A. pullulans, read-out: Antimicrobial Activity (MIC) Fungi Ap): 1 µg/mL
MIC ([5]; Candida albicans, ATCC10231, C. albicans ATCC 10231, 48 h, read-out: Antimicrobial Activity (MIC) Fungi Ca): 7.8 µg/mL
MIC ([6]; Rhodotorula sp., read-out: Antimicrobial Activity (MIC) Fungi Rh): 1 µg/mL
MIC ([7]; Escherichia coli, read-out: MIC E. coli MC4100 (WT)): 0.3 µg/mL (≈ 0.594 µM)
MIC ([8]; Escherichia coli, read-out: MIC E. coli NR698 (mutant)): 0.3 µg/mL (≈ 0.594 µM)
effect on NPN fluorescence (outer membrane permeabilization) ([9]; E. coli MC4100, 20 µM NPN, 3 min): increase the NPN fluorescence in a concentration-dependent manner

CCCCCCCC(=O)N[C@H]1CSSC[C@@H](C(=O)N[C@@H](CCCCN)C(=O)N[C@@H](CC(C)C)C(N)=O)NC(=O)[C@H](CCCCN)NC(=O)[C@H](Cc2c[nH]c3ccccc23)NC(=O)CNC(=O)[C@H](Cc2c[nH]c3ccccc23)NC(=O)[C@H](Cc2c[nH]c3ccccc23)NC(=O)[C@H](CCCCN)NC(=O)[C@H](CCCCN)NC(=O)CNC1=O [Peptide C8-cTurg-2, C8- (CGKKWWGWKC)KL-NH2] (Octanoyl-CGKKWWGWKCKL-NH2; disulfide 1-10)
Antimicrobial Activity (MIC) Gram + Bs [1]: 2 µg/mL
Antimicrobial Activity (MIC) Gram + Sa [2]: 4 µg/mL
Antimicrobial Activity (MIC) Gram + Se [3]: 4 µg/mL
Antimicrobial Activity (MIC) Fungi Ap [4]: 16 µg/mL
Antimicrobial Activity (MIC) Fungi Ca [5]: 32 µg/mL
Antimicrobial Activity (MIC) Fungi Rh [6]: 4 µg/mL
MIC E. coli MC4100 (WT) [7]: 8 µg/mL (≈ 4.86 µM)
MIC E. coli NR698 (mutant) [8]: 2 µg/mL (≈ 1.21 µM)
effect on NPN fluorescence (outer membrane permeabilization) ([9]; not told): increase the NPN fluorescence in a concentration-dependent manner
